Measurements taken from ChEMBL document CHEMBL4270495, “Oleanane-, ursane-, and quinone methide friedelane-type triterpenoid derivatives: Recent advances in cancer treatment” (Eur J Med Chem, 2017).

Tests used:
Bel-7402 = assay: Cytotoxicity in human Bel7402 cells assessed as reduction in cell viability incubated for 72 hrs by MTT assay; format: functional, cell-based; details: Bel-7402, 72 h
H4 = assay: Cytotoxicity in human H4 cells assessed as reduction in cell viability incubated for 72 hrs by MTT assay; format: functional, cell-based; details: H4, 72 h
H9c2 = assay: Cytotoxicity in rat H9c2 cells assessed as reduction in cell viability incubated for 72 hrs by MTT assay; format: cell-based; details: H9c2, 72 h
HepG2 = assay: Cytotoxicity in human HepG2 cells assessed as reduction in cell viability incubated for 72 hrs by MTT assay; format: functional, cell-based; details: HepG2, 72 h
HeLa = assay: Cytotoxicity in human HeLa cells assessed as reduction in cell viability incubated for 72 hrs by MTT assay; format: functional, cell-based
MDCK = assay: Cytotoxicity in canine MDCK cells assessed as reduction in cell viability incubated for 72 hrs by MTT assay; format: cell-based; details: Canis lupus familiaris
EA.hy 926 = assay: Cytotoxicity in human EAhy926 cells assessed as reduction in cell viability incubated for 72 hrs by MTT assay; format: cell-based; details: EA.hy 926, 72 h
HT-29 [1] = assay: Cytotoxicity in human HT-29 cells assessed as reduction in cell viability incubated for 72 hrs by MTT assay; format: functional, cell-based; details: HT-29, 72 h
MCF7 [2] = assay: Cytotoxicity in human MCF7 cells assessed as reduction in cell viability incubated for 24 hrs by MTT assay; format: functional, cell-based; details: MCF7, 24 h
TERT-RPE1 = assay: Cytotoxicity in human hTERT-RPE1 cells assessed as reduction in cell viability incubated for 24 hrs by MTT assay; format: functional, cell-based; details: RPE-1, 24 h
MCF7 [3] = assay: Cytotoxicity in human MCF7 cells assessed as reduction in cell viability incubated for 48 hrs by SRB assay; format: functional, cell-based; details: MCF7, 48 h
MDA-MB-231 [4] = assay: Cytotoxicity in human MDA-MB-231 cells assessed as reduction in cell viability incubated for 48 hrs by SRB assay; format: functional; details: MDA-MB-231, 48 h
PC-3 = assay: Cytotoxicity in human PC3 cells assessed as reduction in cell viability incubated for 96 hrs by SRB assay; format: functional, cell-based; details: PC-3, 96 h
HT-29 [5] = assay: Cytotoxicity in human HT-29 cells assessed as reduction in cell viability incubated for 96 hrs by SRB assay; format: functional, cell-based; details: HT-29, 96 h
4T1 = assay: Cytotoxicity in mouse 4T1 cells assessed as reduction in cell viability incubated for 96 hrs by SRB assay; format: functional, cell-based; details: 4T1, 96 h
MDA-MB-231 [6] = assay: Cytotoxicity in human MDA-MB-231 cells assessed as reduction in cell viability incubated for 96 hrs by SRB assay; format: functional, cell-based; details: MDA-MB-231, 96 h
HCT-116 = assay: Cytotoxicity in human HCT116 cells assessed as reduction in cell viability incubated for 96 hrs by SRB assay; format: functional, cell-based; details: HCT-116, 96 h
CT26 = assay: Cytotoxicity in mouse CT26 cells assessed as reduction in cell viability incubated for 96 hrs by SRB assay; format: functional, cell-based; details: CT26, 96 h
DU-145 = assay: Cytotoxicity in human DU145 cells assessed as reduction in cell viability incubated for 96 hrs by SRB assay; format: functional, cell-based; details: DU-145, 96 h
MDA-MB-231 [7] = assay: Cytotoxicity in human MDA-MB-231 cells assessed as reduction in cell viability incubated for 24 hrs by MTT assay; format: functional, cell-based; details: MDA-MB-231, 24 h
HCT-8 = assay: Cytotoxicity in human HCT8 cells assessed as reduction in cell viability incubated for 96 hrs by SRB assay; format: functional, cell-based; details: HCT-8, 96 h

Row | SMILES | IC50 (Bel-7402) [µM] | IC50 (H4) [µM] | IC50 (H9c2) [µM] | IC50 (HepG2) [µM] | IC50 (HeLa) [µM] | IC50 (MDCK) [µM] | IC50 (EA.hy 926) [µM] | IC50 (HT-29 [1]) [µM] | also measured
1 | CC(=O)CC1C=C2C(C)(CC[C@@]3(C)[C@@H]4C[C@](C)(C(=O)O)CC[C@]4(C)CC[C@]23C)c2cc(OC(C)=O)c(OC(C)=O)c(C)c21 (single isomer, unassigned) | > 150 | > 150 | – | – | – | – | – | – | –
2 | COc1ccc(/C=C/C(=O)O[C@H]2CC[C@]3(C)[C@H]4C(=O)C=C5[C@H]6C[C@@](C)(C(=O)O)CC[C@]6(C)CC[C@@]5(C)[C@]4(C)CC[C@H]3C2(C)C)cc1 | – | – | 36.1 | 31.2 | 23.4 | 21.7 | > 50 | 33 | –
3 | CC1(C)[C@@H](OC(=O)/C=C/c2ccccc2)CC[C@]2(C)[C@H]3C(=O)C=C4[C@H]5C[C@@](C)(C(=O)O)CC[C@]5(C)CC[C@@]4(C)[C@]3(C)CC[C@@H]12 | – | – | 46.1 | 24.4 | 23.7 | 22.6 | 28.9 | 22.3 | –
4 | Cc1c(O)c(O)cc2c1C(c1c[nH]c3cc(Cl)ccc13)C=C1C2(C)CC[C@@]2(C)[C@H]3C[C@](C)(C(=O)O)CC[C@]3(C)CC[C@]12C (single isomer, unassigned) | 6.53 | 7.83 | – | – | – | – | – | – | –
5 | CC(=O)Oc1cc2c(c(C)c1OC(C)=O)C(Sc1ccc(C)cc1)C=C1C2(C)CC[C@@]2(C)[C@@H]3C[C@](C)(C(=O)O)CC[C@]3(C)CC[C@]12C (single isomer, unassigned) | 0.45 | 0.37 | – | – | – | – | – | – | –
6 | COc1cccc2c1C(=O)c1c(O)c3c(c(O)c1C2=O)C[C@@](O)(C(=O)CO)C[C@@H]3O[C@H]1C[C@H](N)[C@H](O)[C@H](C)O1 [DOXORUBICIN] | – | – | – | – | – | – | – | – | IC50 (MCF7 [2]): 0.49 µM; IC50 (TERT-RPE1): 2.76 µM; GI50 (MCF7 [3]): 5.7 µM; GI50 (MDA-MB-231 [4]): 4.1 µM
7 | COc1ccc2[nH]cc(C3C=C4C(C)(CC[C@@]5(C)[C@H]6C[C@](C)(C(=O)O)CC[C@]6(C)CC[C@]45C)c4cc(O)c(O)c(C)c43)c2c1 (single isomer, unassigned) | 45.4 | 24.4 | – | – | – | – | – | – | –
8 | COc1ccc(OC)c(/C=C/C(=O)O[C@H]2CC[C@]3(C)[C@H]4C(=O)C=C5[C@H]6C[C@@](C)(C(=O)O)CC[C@]6(C)CC[C@@]5(C)[C@]4(C)CC[C@H]3C2(C)C)c1 | – | – | > 50 | 25.4 | 28 | > 50 | 45.1 | 26.4 | –
9 | COc1cccc(/C=C/C(=O)O[C@H]2CC[C@]3(C)[C@H]4C(=O)C=C5[C@H]6C[C@@](C)(C(=O)O)CC[C@]6(C)CC[C@@]5(C)[C@]4(C)CC[C@H]3C2(C)C)c1OC | – | – | > 50 | 24.4 | 22.5 | 33.7 | 25 | 24.4 | –
10 | CC1(C)[C@@H](O)CC[C@]2(C)[C@H]3C(=O)C=C4[C@H]5C[C@@](C)(C(=O)O)CC[C@]5(C)CC[C@@]4(C)[C@]3(C)CC[C@@H]12 | – | – | > 100 | > 50 | > 50 | > 100 | > 100 | > 50 | IC50 (PC-3): 88 µM; IC50 (MCF7 [2]): 75.7 µM; IC50 (HT-29 [5]): 77.2 µM; IC50 (TERT-RPE1): 63.4 µM; IC50 (4T1): 96.2 µM; IC50 (MDA-MB-231 [6]): 101 µM; IC50 (HCT-116): 75.1 µM; IC50 (CT26): 70.5 µM; IC50 (DU-145): 136 µM; IC50 (MDA-MB-231 [7]): 84.7 µM; IC50 (HCT-8): 82.2 µM
11 | COc1ccc(/C=C/C(=O)O[C@H]2CC[C@]3(C)[C@H]4C(=O)C=C5[C@H]6C[C@@](C)(C(=O)O)CC[C@]6(C)CC[C@@]5(C)[C@]4(C)CC[C@H]3C2(C)C)c(OC)c1OC | – | – | > 50 | 21.5 | 8.54 | 31.8 | 27.7 | 15 | –
12 | COc1cc(/C=C/C(=O)O[C@H]2CC[C@]3(C)[C@H]4C(=O)C=C5[C@H]6C[C@@](C)(C(=O)O)CC[C@]6(C)CC[C@@]5(C)[C@]4(C)CC[C@H]3C2(C)C)cc(OC)c1OC | – | – | 47.4 | 21.9 | 30.7 | 27.7 | 30.8 | 25.5 | –
13 | C[C@H]1[C@H](C)CC[C@]2(C(=O)OCCCn3cc(COC(=O)[C@]45CC[C@@H](C)[C@H](C)[C@@H]4C4=CC[C@@H]6[C@@]7(C)C[C@H](O)[C@H](O)[C@](C)(CO)[C@@H]7CC[C@]6(C)[C@]4(C)CC5)cn3)CC[C@]3(C)C(=CC[C@@H]4[C@@]5(C)CC[C@H](O)C(C)(C)[C@@H]5CC[C@]43C)[C@H]12 | – | – | – | – | – | – | – | – | GI50 (MCF7 [3]): 12.8 µM; GI50 (MDA-MB-231 [4]): 7.4 µM
14 | CC(=O)Nc1ccc(SC2C=C3C(C)(CC[C@@]4(C)[C@@H]5C[C@](C)(C(=O)O)CC[C@]5(C)CC[C@]34C)c3cc(OC(C)=O)c(OC(C)=O)c(C)c32)cc1 (single isomer, unassigned) | 0.46 | 0.35 | – | – | – | – | – | – | –
15 | COc1ccccc1/C=C/C(=O)O[C@H]1CC[C@]2(C)[C@H]3C(=O)C=C4[C@H]5C[C@@](C)(C(=O)O)CC[C@]5(C)CC[C@@]4(C)[C@]3(C)CC[C@H]2C1(C)C | – | – | > 50 | 32 | 24.6 | 22.9 | > 50 | 22.2 | –
16 | COC(=O)[C@]1(C)CC[C@]2(C)CC[C@]3(C)C4=CC(c5c[nH]c6cc(C)ccc56)c5c(cc(OC)c(OC)c5C)C4(C)CC[C@@]3(C)[C@H]2C1 (single isomer, unassigned) | 0.02 | 7.88 | – | – | – | – | – | – | –
17 | Cc1ccc2c(C3C=C4C(C)(CC[C@@]5(C)[C@H]6C[C@](C)(C(=O)O)CC[C@]6(C)CC[C@]45C)c4cc(O)c(O)c(C)c43)c[nH]c2c1 (single isomer, unassigned) | 5.52 | 6.66 | – | – | – | – | – | – | –
18 | COC(=O)[C@]1(C)CC[C@]2(C)CC[C@]3(C)C4=CC(c5c[nH]c6ccc(OC)cc56)c5c(cc(OC)c(OC)c5C)C4(C)CC[C@@]3(C)[C@H]2C1 (single isomer, unassigned) | 0.51 | 4.59 | – | – | – | – | – | – | –
19 | C[C@H]1[C@H](C)CC[C@]2(C(=O)OCCCn3cc(COC(=O)[C@]45CC[C@@H](C)[C@H](C)[C@@H]4C4=CC[C@@H]6[C@@]7(C)C[C@H](O)[C@H](O)C(C)(C)[C@@H]7CC[C@]6(C)[C@]4(C)CC5)cn3)CC[C@]3(C)C(=CC[C@@H]4[C@@]5(C)CC[C@H](O)C(C)(C)[C@@H]5CC[C@]43C)[C@H]12 | – | – | – | – | – | – | – | – | GI50 (MCF7 [3]): 12 µM; GI50 (MDA-MB-231 [4]): 4.7 µM
20 | Cc1ccc(/C=C/C(=O)O[C@H]2CC[C@]3(C)[C@H]4C(=O)C=C5[C@H]6C[C@@](C)(C(=O)O)CC[C@]6(C)CC[C@@]5(C)[C@]4(C)CC[C@H]3C2(C)C)cc1 | – | – | > 50 | 22.1 | 14.2 | 38 | 27.6 | 21.7 | –
21 | C=C(C)[C@@H]1CC[C@]2(C(=O)O)CC[C@]3(C)[C@H](CC[C@@H]4[C@@]5(C)CC[C@H](O)C(C)(C)[C@@H]5CC[C@]43C)[C@@H]12 [BETULINIC ACID] | – | – | – | – | – | – | – | – | GI50 (MCF7 [3]): 11.3 µM; GI50 (MDA-MB-231 [4]): 22.9 µM
22 | COC(=O)[C@]1(C)CC[C@]2(C)CC[C@]3(C)C4=CC(c5cn(C)c6cc(Cl)ccc56)c5c(cc(OC)c(OC)c5C)C4(C)CC[C@@]3(C)[C@H]2C1 (single isomer, unassigned) | 0.01 | 2.03 | – | – | – | – | – | – | –
23 | COc1cccc(/C=C/C(=O)O[C@H]2CC[C@]3(C)[C@H]4C(=O)C=C5[C@H]6C[C@@](C)(C(=O)O)CC[C@]6(C)CC[C@@]5(C)[C@]4(C)CC[C@H]3C2(C)C)c1 | – | – | > 50 | 12.7 | 17.5 | 22.2 | 31 | 14.9 | –
